In the CheMixHub viscosity set:

Assay: xn = mol fraction of the nth substance listed

O=CC(Cl)(Cl)Cl + C[N+](=O)[O-]
viscosity [mPa·s], 101.33 kPa
Details	x1 = 0.1002	x1 = 0.2003	x1 = 0.2963	x1 = 0.4004	x1 = 0.4966	x1 = 0.5833	x1 = 0.6948	x1 = 0.8007	x1 = 0.8965
298.15 K	0.661	0.7023	0.7591	0.8043	0.8435	0.8874	0.9389	0.9876	1.028
323.15 K	0.5186	0.5507	0.5793	0.6238	0.6316	0.6661	0.6895	0.7155	0.7491

O=C(O)CCl + C[N+](C)(C)CCO.[Cl-]
101 kPa, x2 = 0.333
Details	viscosity [mPa·s]
293.15 K	161
298.15 K	117.9
303.15 K	88.59
308.15 K	68.11
313.15 K	53.44
318.15 K	42.65
323.15 K	34.65

CC(=O)OCc1ccccc1 + Cc1ccc(C)cc1
viscosity [mPa·s], 101 kPa
Details	x1 = 0.0917	x1 = 0.1773	x1 = 0.2764	x1 = 0.3701	x1 = 0.4679	x1 = 0.5689	x1 = 0.6717	x1 = 0.7678	x1 = 0.8698	x1 = 0.9473
303.15 K	0.602	0.645	0.716	0.792	0.891	1.005	1.134	1.267	1.421	1.549
313.15 K	0.537	0.571	0.624	0.681	0.76	0.85	0.937	1.036	1.179	1.273

ClC(Cl)Cl + Cc1ccc(C)cc1
298.15 K, 101 kPa
Details	viscosity [mPa·s]
x1 = 0.4429	0.6167
x1 = 0.5074	0.6102
x1 = 0.5571	0.6084
x1 = 0.5997	0.6031
x1 = 0.6505	0.6003
x1 = 0.6897	0.5954
x1 = 0.7351	0.5903

CC(=O)OCc1ccccc1 + Cc1cccc(C)c1
viscosity [mPa·s], 101 kPa
Details	x1 = 0.0925	x1 = 0.1766	x1 = 0.2746	x1 = 0.3691	x1 = 0.4674	x1 = 0.5665	x1 = 0.6703	x1 = 0.7681	x1 = 0.8773	x1 = 0.9356
303.15 K	0.593	0.638	0.712	0.79	0.884	0.996	1.125	1.257	1.436	1.535
313.15 K	0.528	0.576	0.634	0.679	0.751	0.837	0.942	1.05	1.177	1.245

CC(=O)OCc1ccccc1 + Cc1cccc(O)c1
313.15 K, 101.33 kPa
Details	viscosity [mPa·s]
x1 = 0.115	5.114
x1 = 0.272	3.917
x1 = 0.435	3.06
x1 = 0.62	2.337
x1 = 0.81	1.765

ClC(Cl)Cl + Cc1ccccc1
298.15 K
Details	viscosity [mPa·s]
101 kPa, x1 = 0.1361	0.5653
101 kPa, x1 = 0.2872	0.5753
101 kPa, x1 = 0.4067	0.5833
101 kPa, x1 = 0.554	0.5861
101 kPa, x1 = 0.6211	0.584
101 kPa, x1 = 0.6656	0.58
101 kPa, x1 = 0.8806	0.5593
101.33 kPa, x1 = 0.0912	0.5573
101.33 kPa, x1 = 0.1727	0.5608
101.33 kPa, x1 = 0.2562	0.5636
101.33 kPa, x1 = 0.3481	0.5661
101.33 kPa, x1 = 0.5471	0.5687
101.33 kPa, x1 = 0.6862	0.5638
101.33 kPa, x1 = 0.8428	0.5531
101.33 kPa, x1 = 0.9237	0.545

CC(=O)OCc1ccccc1 + Cc1ccccc1C
viscosity [mPa·s], 101 kPa
Details	x1 = 0.0897	x1 = 0.1695	x1 = 0.2706	x1 = 0.3684	x1 = 0.4671	x1 = 0.562	x1 = 0.6623	x1 = 0.7598	x1 = 0.8617	x1 = 0.9299
303.15 K	0.751	0.802	0.873	0.957	1.047	1.142	1.252	1.361	1.478	1.563
313.15 K	0.671	0.72	0.783	0.845	0.909	0.976	1.054	1.135	1.224	1.285

O=[N+]([O-])[O-].[Na+] + N
293.15 K, 101 kPa
Details	viscosity [mPa·s]
x1 = 0.02	0.182
x1 = 0.039	0.225
x1 = 0.081	0.374
